For assay [1], the system named is mechanical allodynia in L5/L6 spinal nerve-ligated rats. The assay is described as follows: Neuropathic pain model (antiallodynic effects in L5/L6 spinal nerve-ligated rats, von Frey hair test). The format is in vivo, rats (SD, male). Conditions: 30 to 60 min before measurement, response threshold, ipsilateral 0% / contralateral 100% of vehicle group. As for the experimental part:
The antiallodynic effects of the compounds of the present invention were confirmed by assessing the analgesic action in L5/L6 spinal nerve-ligated rats. The assessment was carried out by the method of Kim and Chung (Pain 50, 355-363, 1992) with some modifications.
Under pentobarbital anesthesia, the left L5 and L6 spinal nerves of male SD rats (5-6 weeks old) were tightly ligated with silk thread. For the assessment of analgesic action, the von Frey hair test was adopted. That is, the animal's hind paw pad was pricked with hair and the lowest strength of hair for limb withdrawal response was designated as a response threshold (log gram) to mechanical stimulation. […] On the day before the assessment of the test compound, the response threshold before administration of the test compound was measured. The animals were divided into 4 to 5 groups such that mean value differences of response thresholds between groups before administration of the test compound and within-group variation become small. In the assessment of the test compound, the response threshold after administration of the test compound was measured. The test compound was orally administered 30 to 60 minutes before the measurement of the response threshold. […] Recovery rate(%)={(mean of response threshold in test compound-treated group)−(mean of response threshold of ipsilateral paw in vehicle-treated group)}/{(mean of response threshold of contralateral paw in the vehicle-treated group)−(mean of response threshold of ipsilateral paw in the vehicle-treated group)}×100

Assay [2] relates to formalin-induced pain behaviors. The assay is described as follows: Nociceptive pain model (mouse formalin test). It counts as in vivo, mice (ddY, male). Conditions: 100 mg/kg oral, 30 min before formalin; pain behaviors 15 to 25 min after formalin, vs vehicle. The method, then: A mouse formalin test was carried out by a modification of the method as described in the literature [Murakami et al., Eur. J. Pharmacol. 419: 175-181 (2001)]. When 20 μL of 2.0% formalin was subcutaneously administered to the paw pads of mice (ddY, male, 5 weeks old), pain behaviors (limb withdrawal and licking behaviors) were induced in the treated animal limbs. From 15 to 25 minutes after the administration of formalin, the time taken for the onset of pain behaviors was measured to thereby evaluate the inhibitory action of the test compound on pain behaviors of animals. The test compound was orally given 30 minutes prior to the administration of formalin. […] Inhibition rate(%)=100−(mean onset time of pain behaviors in test compound-treated group)/(mean onset time of pain behaviors in vehicle-treated group)×100

The test system of assay [3] is CRD-induced abdominal flexion reflex behaviors. Description: Abdominal pain model (CRD-induced abdominal pain in rats). It counts as in vivo, rat (Wistar, male). Conditions: 10 mg/kg oral, 30 min before distension; abdominal flexion reflex behaviors at internal pressure of 45 mmHg. As for the experimental part: Improving effects of the compounds of the present invention on digestive tract pain were confirmed by assay of CRD-induced abdominal pain in rats. The rat CRD-induced abdominal pain assay was carried out by a modification of the method described in the literature [Neurogastroenterol. Motil. 15: 363-369 (2003)]. When stimulation of constant internal pressure is applied to the colorectum of an animal by inflation of a 6-cm long balloon inserted into the anus of the rat (Wistar, male, 250-350 g), abdominal flexion reflex behaviors are induced due to abdominal pain. A frequency of reflex behaviors occurring during distension stimulation of 5 minutes was counted to estimate an abdominal pain-inhibitory action of the test compound. The test compound was orally administered 30 minutes before the initiation of distension stimulation. Estimation of the test compound was made by calculating an inhibition rate (%) of abdominal flexion reflex behaviors on the vehicle-treated group.

The subject of assay [4] is loperamide-induced bead transit delay. The assay is described as follows: Spastic constipation model (loperamide-induced colorectal bead transit delay test in mice). The format is in vivo, mouse (ddY, male). Conditions: 3 mg/kg oral, concurrently with loperamide 0.3 mg/kg s.c.; bead excretion time. As for the experimental part:
A 3-mm diameter glass bead is deeply inserted at a depth of 2 cm into the anus of the mouse (ddY, male, 6 weeks old), and the time taken for excretion of the bead is measured. […] With improving effects on the loperamide-induced bead transit delay, a bowel movement-improving action of the test compound on spastic constipation was evaluated. The test compound was orally administered concurrently with administration of loperamide (30 minutes before the insertion of the bead). The assessment of the test compound was made from calculation of an improvement rate in the bead excretion time of the test compound-treated/loperamide-treated group, by taking the bead excretion time of the non-test compound treated/non-loperamide treated (vehicle-treated/vehicle-treated) group as 100%, and by taking the bead excretion time of the non-test compound treated/loperamide-treated (vehicle-treated/loperamide-treated) group as 0%.

In assay [5] the test system is mechanical allodynia in L5/L6 spinal nerve-ligated rats. Conditions: known; cited from earlier work.

Structures are written as SMILES.

Take `O=C(CNCC1(O)CCCCC1)N1CCc2ccccc2[C@@H]1C1CCCCC1` [Example 1, 1-[({2-[(1S)-1-cyclohexyl-3,4-dihydroisoquinolin-2(1H)-yl]-2-oxoethyl}amino)methyl]cyclohexanol]: the “Recovery rate (%) (dose)” value in assay [1] (30 mg/kg oral) amounted to 95%. This molecule showed an Inhibition rate in assay [2] of 52%.
Consider `COC[C@@H](O)CNCC(=O)N1CCc2ccccc2[C@@H]1C1CCCCC1` [Example 157], for which the “Recovery rate (%) (dose)” value in assay [1] (30 mg/kg oral) is 97%. Besides, the Inhibition rate is recorded as 52% in assay [2], 59% in assay [3] and 40% in assay [4].
Regarding `COc1ccc2c(c1)CCN(C(=O)CNCC1(O)CCCCC1)[C@H]2C(C)C` [Example 415], the Inhibition rate in assay [3] is on record as 60%; in assay [4], 88%.
With `COC[C@@H](O)CNCC(=O)N1CCc2ccccc2[C@@H]1Cc1ccccc1C(F)(F)F` [Example 433], the “Recovery rate (%) (dose)” value in assay [1] (10 mg/kg oral) is given as 80%. The Inhibition rate turned out to be 60% in assay [2], 43% in assay [3] and 73% in assay [4].
For the molecule `COc1cccc2c1[C@H](c1ccccc1)N(C(=O)CNC[C@@H](C)O)CC2` [Example 435], the Inhibition rate in assay [3] amounted to 46%; in assay [4] it was 67%.
On to `CCc1ccc2c(c1)[C@H](COC)N(C(=O)CNCC1(O)CCCCC1)CC2` [Example 436], for which the “Recovery rate (%) (dose)” value in assay [1] (10 mg/kg oral) worked out at 156%. Moreover, the Inhibition rate came to 55% in assay [2], 56% in assay [3] and 59% in assay [4].
`COc1cccc2c1[C@H](c1ccccc1)N(C(=O)CNC[C@@H](C)O)CC2` [Example 575]: the “Recovery rate (%) (dose)” value in assay [1] (10 mg/kg oral) is 83%. The same molecule showed an Inhibition rate in assay [2] of 77%.
Turning to `CN1CC[C@]23c4c5ccc(O)c4O[C@H]2[C@@H](O)C=C[C@H]3[C@H]1C5` [morphine], the “recovery of mechanical allodynia with treatment of morphine” value in assay [5] is given as “only a partial recovery”.
